The subject of test [1] is HeLa. Put plainly: Antiproliferative activity against human HeLa cells measured after 48 hrs by MTT assay. The format is functional, cell-based. For orientation: Formazan colour is commonly taken as a measure of viable cells.
A further test relates to T47D. In words: Antiproliferative activity against human T47D cells measured after 48 hrs by MTT assay. The format is functional, cell-based.
Another test relates to A549. In words: Antiproliferative activity against human A549 cells measured after 48 hrs by MTT assay. In kind it is functional, cell-based. Particulars: A549, 48 h.
The species named for the next test is Sus scrofa. Put plainly: Inhibition of pig brain tubulin polymerization at 10 uM measured at 1 min interval for 20 mins by spectrophotometric method relative to control.
The nature of test [2]: Inhibition of pig brain tubulin polymerization measured at 1 min interval for 20 mins by spectrophotometric method. On the set-up: species or system Sus scrofa.
For the next test, the system named is HEK293. In words: Cytotoxicity against HEK293 cells measured after 48 hrs by MTT assay. In kind it is cell-based. Particulars: Homo sapiens, HEK293, 48 h.
The subject of a further test is MCF7. In words: Antiproliferative activity against human MCF7 cells measured after 48 hrs by MTT assay. In kind it is functional, cell-based. The settings on record: MCF7, 48 h.
Test [3] has as its system HeLa. In words: Induction of microtubule disruption in human HeLa cells at 12 nM measured after 6 hrs by DAPI staining based immunofluorescence microscopy. In kind it is cell-based.

Active and inactive are the calls of the source. The rule behind the calls is not given here.

In general, IC50 refers to the point on the concentration scale where inhibition reaches its midpoint. Lower therefore signals greater potency in that assay. What is called inhibition is the change of the read-out against control, counted positive when it falls.

Turning to `COc1cc(-c2nnc3ccc(-c4ccc(O)cc4)cn23)cc(OC)c1OC`, the concentration for half-maximal inhibition (IC50) in the test with HeLa [1] was over 25 µM.

`COc1cc(-c2nnc3ccc(-c4ccccc4OC(F)(F)F)cn23)cc(OC)c1OC`: the 50% inhibitory concentration (IC50) in the test on HeLa [1] was determined as 22.2 µM.

On to `COc1cc(-c2nnc3ccc(-c4ccc(C)cc4)cn23)cc(OC)c1OC`, for which the IC50 is 0.034 µM with HeLa [1]; over 100 µM with T47D; 6.26 µM with A549; 4.1 µM in test [2]; over 100 µM in the test with HEK293; over 100 µM in the test on MCF7. In the test filed under Sus scrofa, the inhibition came to 77%.

Take `COc1ccc(/C=C\c2cc(OC)c(OC)c(OC)c2)cc1O` [COMBRETASTATIN A4]: the half-maximal inhibitory concentration (IC50) in the test on HeLa [1] worked out at 0.0047 µM; with MCF7, 0.17 µM. In addition, the result with HeLa [3] was Active. The molecule also showed an inhibition in the test listed under Sus scrofa of 79%.

Consider `COc1cc(-c2ccc3nnc(-c4ccc(Cl)c(Cl)c4)n3c2)cc(OC)c1OC`, for which the IC50 with HeLa [1] was over 25 µM.

Consider `COc1ccc(-c2nnc3ccc(-c4cc(OC)c(OC)c(OC)c4)cn23)cc1O`, for which the IC50 in the test on HeLa [1] turned out to be 22.1 µM.

Consider `COc1ccc(-c2ccc3nnc(-c4cc(OC)c(OC)c(OC)c4)n3c2)c(OC)c1`, for which the IC50 in the test on HeLa [1] stood at 7.9 µM.

For the molecule `COc1ccc(-c2ccc3nnc(-c4cc(OC)c(OC)c(OC)c4)n3c2)c(O)c1`, the IC50 in the test with HeLa [1] was over 25 µM.

With `COc1ccc(-c2ccc3nnc(-c4cc(OC)c(OC)c(OC)c4)n3c2)cc1OC`, the concentration for half-maximal inhibition (IC50) is 0.119 µM with HeLa [1]; over 100 µM with T47D; 87.1 µM with A549; 11.3 µM in test [2]; over 100 µM with MCF7. Also, the inhibition in the test listed under Sus scrofa worked out at 68%.

For `COc1ccc(-c2nnc3ccc(-c4cc(OC)c(OC)c(OC)c4)cn23)cc1`, the IC50 in the test with HeLa [1] was over 25 µM.

The molecule `COc1cc(-c2ccc3nnc(-c4ccc(Cl)cc4)n3c2)cc(OC)c1OC` registered an IC50 with HeLa [1] of over 25 µM.

On to `COc1cc(-c2nnc3ccc(-c4ccc(Cl)cc4)cn23)cc(OC)c1OC`, for which the figures for the IC50 in the test on HeLa [1] and in the test with HEK293 were 0.065 µM and over 100 µM, respectively.

As to `COc1ccc(F)cc1-c1ccc2nnc(-c3cc(OC)c(OC)c(OC)c3)n2c1`, in the test on HeLa [1], half-maximal inhibition (IC50) was put at 0.651 µM.

Regarding `COc1cc(-c2nnc3ccc(-c4ccc(F)cc4)cn23)cc(OC)c1OC`, the IC50 with HeLa [1] was 0.025 µM; in the test on T47D it was 76 µM; with A549 it was 78.6 µM; in the test on HEK293, over 100 µM; in the test with MCF7, over 100 µM. For the same molecule, in the test listed under Sus scrofa, the inhibition was 18%.

With `COc1ccccc1-c1ccc2nnc(-c3cc(OC)c(OC)c(OC)c3)n2c1`, the IC50 was 0.084 µM in the test on HeLa [1]; 31.5 µM with T47D; 9.28 µM in the test with A549; over 100 µM in the test with HEK293; 13.7 µM with MCF7. Moreover, the inhibition in the test filed under Sus scrofa came to 16%.

In the case of `COc1ccc(-c2ccc3nnc(-c4cc(OC)c(OC)c(OC)c4)n3c2)cc1[N+](=O)[O-]`, the IC50 with HeLa [1] is 0.062 µM; with T47D, over 100 µM; in the test with A549, 58.7 µM; with HEK293, over 100 µM; in the test on MCF7 it was 75.7 µM. In addition, the inhibition in the test filed under Sus scrofa was found to be 36%.

The values are drawn from ChEMBL document CHEMBL4765401, “Synthesis, and biological evaluation of 3,6-diaryl-[1,2,4]triazolo[4,3-a]pyridine analogues as new potent tubulin polymerization inhibitors” (Eur J Med Chem, 2020).
